Assay [1] concerns Mus musculus. The assay can be described thus: Analgesic activity in mouse at 20 mg/kg, sc by hot-plate method. In kind it is functional, organism-based. On the set-up: dose 20 mg/kg. Background: Hot-plate and tail-flick tests time the reaction to a heat stimulus.
Assay [2] relates to Mus musculus. The assay can be described thus: Analgesic activity in sc dosed mouse by hot-plate method. In kind it is functional.
Assay [3] relates to Canis familiaris. Put plainly: Induction of overt behavior in dog at 0.10 mg/kg, iv. The assay is classed as functional, organism-based. On the set-up: dose 0.1 mg/kg. As to conditions: Canis lupus familiaris.
Assay [4] deals with Canis familiaris. Put plainly: Induction of overt behavior in dog at 0.20 mg/kg, iv. In kind it is functional, organism-based. The arrangement: dose 0.2 mg/kg. As to conditions: Canis lupus familiaris.
Assay [5] relates to Canis familiaris. Put plainly: Induction of overt behavior in dog at 0.40 mg/kg, iv. The assay is classed as functional, organism-based. On the set-up: dose 0.4 mg/kg. As to conditions: Canis lupus familiaris.
Assay [6] deals with Canis familiaris. Put plainly: Induction of overt behavior in dog at 0.80 mg/kg, iv. The assay is classed as functional, organism-based. The arrangement: dose 0.8 mg/kg. As to conditions: Canis lupus familiaris.
In assay [7] the test system is Canis familiaris. The assay can be described thus: Induction of overt behavior in dog at 1 mg/kg, iv. In kind it is functional, organism-based. The arrangement: dose 1 mg/kg. As to conditions: Canis lupus familiaris.
Assay [8] concerns Canis familiaris. The assay can be described thus: Induction of overt behavior in dog at 2 mg/kg, iv. As to conditions: Canis lupus familiaris. The assay is classed as functional, organism-based. The arrangement: dose 2 mg/kg.
The subject of assay [9] is Canis familiaris. Put plainly: Induction of overt behavior in dog at 3 mg/kg, iv. On the set-up: dose 3 mg/kg. As to conditions: Canis lupus familiaris. In kind it is functional, organism-based.
Assay [10] deals with Mus musculus. The assay can be described thus: Analgesic activity in mouse at 50 mg/kg, sc by hot-plate method. The assay is classed as functional, organism-based. On the set-up: dose 50 mg/kg.
The subject of assay [11] is Canis familiaris. The assay can be described thus: Induction of overt behavior in dog at 4 mg/kg, iv. On the set-up: dose 4 mg/kg. The assay is classed as functional, organism-based. As to conditions: Canis lupus familiaris.
In assay [12] the test system is Canis familiaris. The assay can be described thus: Induction of overt behavior in dog at 0.01 mg/kg, iv. In kind it is functional, organism-based. The arrangement: dose 0.01 mg/kg. As to conditions: Canis lupus familiaris.
Assay [13] has as its system Canis familiaris. Put plainly: Induction of overt behavior in dog at 0.05 mg/kg, iv. The assay is classed as functional, organism-based. The arrangement: dose 0.05 mg/kg. As to conditions: Canis lupus familiaris.
For assay [14], the system named is Canis familiaris. Put plainly: Induction of overt behavior in dog at 0.50 mg/kg, iv. The assay is classed as functional, organism-based. The arrangement: dose 0.5 mg/kg. As to conditions: Canis lupus familiaris.

Activity calls are given as the source filed them. The rule behind the calls is not given here.

For `CCCCCc1cc(O)c2c(c1)OC(C)(C)[C@@H]1CC/C(=N/O)C[C@@H]21`, the result with Mus musculus [1] was inactive.
What is called ED50 is the dose at which the effect has come halfway, by size or by number of responders. Low values mean an effect at a small dose, high ones a need for a large dose. As to `COc1ccc2c3c1O[C@H]1[C@@H](O)C=C[C@H]4[C@@H](C2)N(C)CC[C@@]341.Cl`, the ED50 in the assay with Mus musculus [2] is 7.5 mg/kg.
`CCCCCc1cc(O)c2c(c1)OC(C)(C)[C@@H]1CC=C(C)C[C@@H]21` [DELTA-8-TETRAHYDROCANNABINOL]: the outcome in the assay on Canis familiaris [3] and with Canis familiaris [4] was inactive. Moreover, the result in the assay with Canis familiaris [5] was Active. Besides, the ED50 in the assay with Mus musculus [2] was 8.8 mg/kg.
With `CCCCCc1cc(O)c2c(c1)OC(C)(C)[C@@H]1CC=C(CC)CC21` (mixture of isomers), the outcome with Canis familiaris [4], in the assay on Canis familiaris [5] and with Mus musculus [10] was inactive. Besides, the result with Canis familiaris [6], in the assay with Canis familiaris [7], with Canis familiaris [8] and in the assay with Canis familiaris [9] was Active.
For `CCCCCc1cc(O)c2c(c1)OC(C)(C)[C@@H]1CC=C(COC)C[C@@H]21`, the result with Canis familiaris [8] and in the assay on Canis familiaris [11] was Active. The compound further returned an ED50 in the assay with Mus musculus [2] of 8.2 mg/kg.
`CCCCCc1cc(O)c2c(c1)OC(C)(C)[C@@H]1CCC(CO)=C[C@@H]21`: the outcome in the assay on Canis familiaris [12], with Canis familiaris [13] and in the assay with Canis familiaris [3] was Active. The 50% effect level in the assay on Mus musculus [2] (ED50) was put at a dose of 1.9 mg/kg.
Take `CCCCCc1cc(O)c2c(c1)OC(C)(C)[C@@H]1CC=C(CNC(C)=O)C[C@@H]21`: in the assay with Mus musculus [1], the outcome was inactive.
The compound `CN1CC[C@]23c4c5ccc(O)c4O[C@H]2[C@@H](O)C=C[C@H]3[C@H]1C5.Cl` [MORPHINE HYDROCHLORIDE] gave an ED50 with Mus musculus [2] of 1.2 mg/kg.
In the case of `CCCCCc1cc(O)c2c(c1)OC(C)(C)[C@@H]1CC=C(CN)C[C@@H]21`, the outcome in the assay with Canis familiaris [14], with Canis familiaris [7] and with Mus musculus [1] was inactive. Moreover, the result in the assay on Canis familiaris [8] was Active.
